Measurements as given in ChEMBL document CHEMBL1828593 (Bioorg Med Chem, 2011).
Activity calls are given as the source filed them. No cut-off for these calls is given here.

Tests used:
[1] = target: Acetylcholine-binding protein (Lymnaea stagnalis, UniProt P58154); test: Displacement of [3H]-epibatidine from histidine-tagged Lymnaea stagnalis AChBP expressed in Sf9 cells after 1.5 hrs by liquid scintillation counting
[2] = target: T1, Neuronal acetylcholine receptor subunit alpha-7 (Homo sapiens, UniProt P36544); test: Antagonist activity at human alpha7 nAChR expressed in Xenopus oocytes assessed as increase of acetylcholine-induced effect by electrophysiology assay; format: functional, cell-based, Oocyte
[3] = target: T2, Neuronal acetylcholine receptor; alpha4/beta2 (Homo sapiens, UniProt P17787+P43681); test: Displacement of [3H]epibatidine from human alpha4beta2 nAChR expressed in human HEK293T cells after 1.5 hrs by liquid scintillation counting; format: cell-based; conditions: HEK-293T
[4] = target: T1, Neuronal acetylcholine receptor subunit alpha-7; test: Displacement of [3H]-MLA from human alpha7 nAChR expressed in human SH-SY5Y cells after 1.5 hrs by liquid scintillation counting; format: cell-based
[5] = target: T2, Neuronal acetylcholine receptor; alpha4/beta2; test: Antagonist activity at human alpha4beta2 nAChR expressed in Xenopus oocytes assessed as inhibition of acetylcholine-induced effect at 100 uM by electrophysiology assay; format: functional, cell-based; conditions: Oocyte
[6] = target: T1, Neuronal acetylcholine receptor subunit alpha-7; test: Antagonist activity at human alpha7 nAChR expressed in Xenopus oocytes assessed as acetylcholine-induced effect at 100 uM by electrophysiology assay; format: functional, cell-based; conditions: Oocyte
[7] = target: T2, Neuronal acetylcholine receptor; alpha4/beta2; test: Antagonist activity at human alpha4beta2 nAChR low affinity site expressed in Xenopus oocytes assessed as inhibition of acetylcholine-induced effect at 220 uM by electrophysiology assay; format: functional, cell-based; conditions: Oocyte
[8] = target: T1, Neuronal acetylcholine receptor subunit alpha-7; test: Antagonist activity at human alpha7 nAChR low affinity site expressed in Xenopus oocytes assessed as inhibition of acetylcholine-induced effect at 20 uM by electrophysiology assay; format: functional, cell-based; conditions: Oocyte
[9] = target: T2, Neuronal acetylcholine receptor; alpha4/beta2; test: Antagonist activity at human alpha4beta2 nAChR high affinity site expressed in Xenopus oocytes assessed as inhibition of acetylcholine-induced effect at 220 uM by electrophysiology assay; format: functional, cell-based; conditions: Oocyte
[10] = target: T2, Neuronal acetylcholine receptor; alpha4/beta2; test: Antagonist activity at human alpha4beta2 nAChR expressed in Xenopus oocytes assessed as increase of acetylcholine-induced effect by electrophysiology assay; format: functional, cell-based, Oocyte
[11] = target: T2, Neuronal acetylcholine receptor; alpha4/beta2; test: Antagonist activity at human alpha4beta2 nAChR low affinity site expressed in Xenopus oocytes assessed as inhibition of acetylcholine-induced effect at 55 uM by electrophysiology assay; format: functional, cell-based; conditions: Oocyte
[12] = Displacement of [3H]epibatidine from histidine-tagged Aplysia californica AChBP expressed in Sf9 cells after 1.5 hrs by liquid scintillation counting
[13] = target: T2, Neuronal acetylcholine receptor; alpha4/beta2; test: Antagonist activity at human alpha4beta2 nAChR high affinity site expressed in Xenopus oocytes assessed as inhibition of acetylcholine-induced effect at 55 uM by electrophysiology assay; format: functional, cell-based; conditions: Oocyte
[14] = target: T1, Neuronal acetylcholine receptor subunit alpha-7; test: Antagonist activity at human alpha7 nAChR low affinity site expressed in Xenopus oocytes assessed as inhibition of acetylcholine-induced effect at 10 uM by electrophysiology assay; format: functional, cell-based; conditions: Oocyte
[15] = target: T1, Neuronal acetylcholine receptor subunit alpha-7; test: Competitive inhibition of human alpha7 nAChR expressed in Xenopus oocytes by electrophysiology assay; format: cell-based; conditions: Oocyte
[16] = target: T2, Neuronal acetylcholine receptor; alpha4/beta2; test: Competitive inhibition of human alpha4beta2 nAChR expressed in Xenopus oocytes by electrophysiology assay; format: cell-based; conditions: Oocyte
[17] = target: T2, Neuronal acetylcholine receptor; alpha4/beta2; test: Antagonist activity at human alpha4beta2 nAChR high affinity site expressed in Xenopus oocytes assessed as inhibition of acetylcholine-induced effect at 10 uM by electrophysiology assay; format: functional, cell-based; conditions: Oocyte
[18] = target: T2, Neuronal acetylcholine receptor; alpha4/beta2; test: Antagonist activity at human alpha4beta2 nAChR low affinity site expressed in Xenopus oocytes assessed as inhibition of acetylcholine-induced effect at 10 uM by electrophysiology assay; format: functional, cell-based; conditions: Oocyte
[19] = target: T1, Neuronal acetylcholine receptor subunit alpha-7; test: Antagonist activity at human alpha7 nAChR low affinity site expressed in Xenopus oocytes assessed as inhibition of acetylcholine-induced effect at 7 uM by electrophysiology assay; format: functional, cell-based; conditions: Oocyte

T2 sequence (P17787 whole entry): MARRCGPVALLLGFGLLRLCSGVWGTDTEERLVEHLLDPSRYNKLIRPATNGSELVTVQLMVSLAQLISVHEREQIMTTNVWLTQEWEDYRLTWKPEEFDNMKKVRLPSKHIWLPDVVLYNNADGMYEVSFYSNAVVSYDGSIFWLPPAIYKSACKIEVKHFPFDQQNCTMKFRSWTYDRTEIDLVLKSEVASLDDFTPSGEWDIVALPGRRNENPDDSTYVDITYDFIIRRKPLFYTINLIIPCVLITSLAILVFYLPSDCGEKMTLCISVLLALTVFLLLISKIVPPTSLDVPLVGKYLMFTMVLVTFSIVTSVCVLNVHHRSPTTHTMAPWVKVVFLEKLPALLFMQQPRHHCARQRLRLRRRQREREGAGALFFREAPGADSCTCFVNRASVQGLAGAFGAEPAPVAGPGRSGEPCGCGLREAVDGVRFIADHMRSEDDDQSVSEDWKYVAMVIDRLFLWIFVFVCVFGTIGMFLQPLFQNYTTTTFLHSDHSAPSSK
T2 sequence (P43681 whole entry): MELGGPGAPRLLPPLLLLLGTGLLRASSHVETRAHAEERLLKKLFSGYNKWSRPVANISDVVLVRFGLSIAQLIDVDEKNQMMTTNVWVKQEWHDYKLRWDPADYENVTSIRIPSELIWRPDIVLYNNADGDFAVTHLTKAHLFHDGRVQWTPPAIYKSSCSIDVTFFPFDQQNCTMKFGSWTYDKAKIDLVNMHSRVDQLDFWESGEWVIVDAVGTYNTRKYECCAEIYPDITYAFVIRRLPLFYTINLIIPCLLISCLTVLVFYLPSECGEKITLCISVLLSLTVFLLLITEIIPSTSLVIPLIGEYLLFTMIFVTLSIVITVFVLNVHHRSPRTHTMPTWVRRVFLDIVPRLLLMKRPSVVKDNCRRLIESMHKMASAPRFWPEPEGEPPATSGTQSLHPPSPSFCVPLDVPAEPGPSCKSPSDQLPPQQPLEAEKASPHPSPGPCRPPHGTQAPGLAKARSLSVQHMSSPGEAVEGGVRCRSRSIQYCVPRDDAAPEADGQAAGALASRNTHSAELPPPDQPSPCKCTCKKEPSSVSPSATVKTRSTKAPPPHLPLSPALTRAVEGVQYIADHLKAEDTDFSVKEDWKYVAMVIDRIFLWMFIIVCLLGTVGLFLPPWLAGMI
Chain of Acetylcholine-binding protein (P58154 whole entry): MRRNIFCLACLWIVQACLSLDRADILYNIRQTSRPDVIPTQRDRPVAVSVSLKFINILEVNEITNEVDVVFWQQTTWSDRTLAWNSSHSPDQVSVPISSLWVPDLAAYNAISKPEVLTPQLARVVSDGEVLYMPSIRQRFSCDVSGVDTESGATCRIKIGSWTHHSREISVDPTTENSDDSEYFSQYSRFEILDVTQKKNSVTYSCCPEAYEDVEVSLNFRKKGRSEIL
T1 sequence (P36544 whole entry): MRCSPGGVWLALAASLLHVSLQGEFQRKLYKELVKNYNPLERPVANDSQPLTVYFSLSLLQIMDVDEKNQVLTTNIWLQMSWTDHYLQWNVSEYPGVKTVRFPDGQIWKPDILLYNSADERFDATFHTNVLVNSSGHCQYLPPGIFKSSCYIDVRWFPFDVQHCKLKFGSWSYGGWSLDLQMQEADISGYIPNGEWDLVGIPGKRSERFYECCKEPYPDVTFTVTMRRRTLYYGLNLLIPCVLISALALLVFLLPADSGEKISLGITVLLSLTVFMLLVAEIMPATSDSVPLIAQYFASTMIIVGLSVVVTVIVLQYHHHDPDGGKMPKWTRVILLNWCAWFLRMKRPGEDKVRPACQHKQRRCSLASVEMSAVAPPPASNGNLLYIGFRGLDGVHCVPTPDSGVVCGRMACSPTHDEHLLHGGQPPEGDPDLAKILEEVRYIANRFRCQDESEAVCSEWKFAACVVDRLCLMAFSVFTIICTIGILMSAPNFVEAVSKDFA

SMILES	Ki [1] [µM]	Activity [3]	Ki [4] [µM]	also measured
CC1CCN(CCc2cc3ccccc3[nH]2)CC1	10	inactive	≥ 31.6	EC50 [2]: 10 µM
c1ccc2c(CN3CCCCC3)csc2c1	1	inactive	15.8	
c1ccc2c(c1)CCc1ccccc1C2NC12CC3CC(CC(C3)C1)C2	≥ 31.6	inactive	≥ 31.6	inhibition [5]: inactive; inhibition [6]: inactive
Cc1ccc(C(OCC2CCC[N+](C)(C)C2)c2ccccc2)cc1 (stereo not drawn)	0.501	inactive	10	
OC(COCc1ccc(Cl)cc1)CN1CCc2ccccc2C1 (stereo not drawn)	1.58	inactive	≥ 31.6	
c1ccc(C2CCN(CCc3nc4ccccc4[nH]3)CC2)cc1	2.51	inactive	≥ 31.6	EC50 [2]: 10 µM
CCN(CC)Cc1csc2ccc(Cl)cc12	3.98	inactive	≥ 31.6	
CC1(C)C=C(c2cc(Br)c(C3=CC(C)(C)NC(C)(C)C3)s2)CC(C)(C)N1	0.398	inactive	≥ 31.6	
Cc1ccccc1C(OCCN1CCCCC1)c1ccccc1 (stereo not drawn)	0.316	inactive	20	
CC(Cc1ccccc1)NC1CN2CCC1CC2 (stereo not drawn)	3.16	inactive	≥ 31.6	
CC1NCCOC1c1ccc(Cl)cc1 (stereo not drawn)	12.6	inactive	≥ 31.6	inhibition [7]: 81%; EC50 [2]: 10 µM; inhibition [8]: Active; inhibition [9]: 19%
NCC(OCc1ccc(Cl)cc1Cl)c1ccccc1 (stereo not drawn)	5.01	inactive	≥ 31.6	EC50 [10]: 10 µM
ClC1(CNc2ccccc2)CCN(Cc2ccccc2)CC1	1.58	inactive	≥ 31.6	
O=C1CN(Cc2ccccc2)Cc2ccsc21	≥ 31.6	inactive	≥ 31.6	inhibition [5]: inactive; inhibition [6]: inactive
CN1CC2Cc3ccccc3C1c1ccccc12 (stereo not drawn)	0.794	inactive	≥ 31.6	EC50 [10]: 10 µM
c1ccc(C2CCN(CCc3cc4ccccc4[nH]3)CC2)cc1	1	inactive	≥ 31.6	inhibition [11]: 75%; pKi [12]: 5.3; inhibition [13]: 25%; EC50 [2]: 10 µM; inhibition [14]: Active; inhibition [15]: Active; inhibition [16]: inactive
C=CC1CN2CCC1CC2c1[nH]c2ccccc2c1CCO (stereo not drawn)	0.398	inactive	≥ 31.6	
NCC(OCc1ccc(Cl)cc1)c1ccccc1 (stereo not drawn)	6.31	inactive	≥ 31.6	pKi [12]: 4.9; EC50 [10]: 10 µM; inhibition [17]: 13%; inhibition [18]: 87%; inhibition [19]: Active; inhibition [15]: Active; inhibition [16]: inactive

SMILES	Ki [1] [µM]	Activity [3]	Ki [4] [µM]	also measured
CN1CCN(Cc2ccccc2Sc2ccccc2)CC1	1.58	inactive	20	
NCc1ccsc1C(O)c1ccccc1 (stereo not drawn)	25.1	inactive	≥ 31.6	
CC(=O)OCC[N+](C)(C)C [ACETYLCHOLINE]	6.31			pKi [12]: 4.3
CC1CC[N+]2(C)CCc3c([nH]c4ccccc34)C2C1 (stereo not drawn)	0.631	inactive	≥ 31.6	
C[N+]1(CCO)Cc2sc3ccc(Cl)cc3c2C1 (stereo not drawn)	1	inactive	20	
CC(C)(C)c1ccc(C(CN)c2ccccc2)cc1 (stereo not drawn)	≥ 31.6	inactive	≥ 31.6	
NCC(c1ccc(Cl)cc1)c1ccc(Sc2ccccc2)cc1 (stereo not drawn)	≥ 31.6	inactive	≥ 31.6	EC50 [2]: 10 µM; inhibition [16]: inactive
O=C1COc2ccccc2N1CCCCN1CCc2ccccc2C1	0.501	inactive	≥ 31.6	
CC(C)(C)C(N)/C=C/c1ccc(Cl)cc1Cl (stereo not drawn)	12.6	inactive	≥ 31.6	
CSc1[nH]c2ccccc2c1CN1CCCCC1	1.58	inactive	3.98	
c1ccc(CN2CCN(CCCSc3cc4ccccc4[nH]3)CC2)cc1	2	inactive	≥ 31.6	
CC1CC2(CCCCC2)NCc2ccccc21 (stereo not drawn)	0.631	inactive	≥ 31.6	
CN1CCC(c2noc3ccccc23)CC1	12.6	inactive	≥ 31.6	
c1ccc(Sc2ccccc2CN2CCCC2)cc1	0.2	inactive	15.8	
c1ccc2c(c1)CC1CNC2c2ccccc21 (stereo not drawn)	12.6	inactive	≥ 31.6	EC50 [10]: 10 µM
Cc1ccc(C(c2ccc(C)cc2)N(C)C)cc1	≥ 31.6	inactive	≥ 31.6	EC50 [2]: 10 µM
c1ccc2c3c([nH]c2c1)C1CCCN1CC3 (stereo not drawn)	1.26	inactive	≥ 31.6	
NCC(c1ccccc1)c1ccc(-c2ccccc2)cc1 (stereo not drawn)	12.6	inactive	≥ 31.6	EC50 [10]: 10 µM
